How the values were obtained:
Conditions in all cases: incubation time: 72 h
MDA-MB-231 = test: normalised viability (% of control), CellTiter-Blue; higher = more viable cells (100 = DMSO, 0 = benzethonium chloride kill control)
Method: (§1)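 DSRT, CellTiter-Blue viability, 72 h incubation. Signal is normalised to DMSO and benzethonium chloride controls. Value is the normalised response at dose 1.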

HDQ-P1 [1] = test: as above
Method: as §1

CAL-120 = test: as above
Method: as §1

SK-BR-3 = test: as above
Method: as §1

CAL-51 [2] = test: as above
Method: as §1

HCC1599 = test: as above
Method: as §1

Hs578T = test: as above
Method: as §1

MDA-MB-453 [3] = test: as above
Method: as §1

BT-474 = test: as above
Method: as §1

BT-549 = test: as above
Method: as §1

HCC1937 = test: as above
Method: as §1

HCC1143 = test: as above
Method: as §1

CAL-148 [4] = test: as above
Method: as §1

DU-4475 [5] = test: as above
Method: as §1

MDA-MB-468 = test: as above
Method: as §1

CAL-85-1 [6] = test: as above
Method: as §1

MFM-223 = test: as above
Method: as §1

MDA-MB-436 = test: as above
Method: as §1

HDQ-P1 [7] = test: normalised viability (% of control), CellTiter-Blue; higher = more viable cells (about 100 = DMSO control)
Method: (§2)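 DSRT, CellTiter-Blue viability, 72 h incubation. Signal is normalised to DMSO and benzethonium chloride controls. Value is the normalised response at dose 9.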

CAL-51 [8] = test: as above
Method: as §2

MDA-MB-453 [9] = test: as above
Method: as §2

CAL-148 [10] = test: as above
Method: as §2

DU-4475 [11] = test: as above
Method: as §2

CAL-85-1 [12] = test: as above
Method: as §2

HDQ-P1 [13] = test: as above; remark: listed apart in the source
Method: (§3)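 DSRT, CellTiter-Blue viability, 72 h incubation. Signal is normalised to DMSO and benzethonium chloride controls. Value is the normalised response at dose 8.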

CAL-51 [14] = test: as above; remark: listed apart in the source
Method: as §3

MDA-MB-453 [15] = test: as above; remark: listed apart in the source
Method: as §3

CAL-148 [16] = test: as above; remark: listed apart in the source
Method: as §3

DU-4475 [17] = test: as above; remark: listed apart in the source
Method: as §3

CAL-85-1 [18] = test: as above; remark: listed apart in the source
Method: as §3

| SMILES | normalised viability (HDQ-P1 [7]) [%] | normalised viability (CAL-51 [8]) [%] | normalised viability (MDA-MB-453 [9]) [%] | normalised viability (CAL-148 [10]) [%] | normalised viability (DU-4475 [11]) [%] | normalised viability (CAL-85-1 [12]) [%] | normalised viability (HDQ-P1 [13]) [%] | normalised viability (CAL-51 [14]) [%] | normalised viability (MDA-MB-453 [15]) [%] | normalised viability (CAL-148 [16]) [%] | normalised viability (DU-4475 [17]) [%] | normalised viability (CAL-85-1 [18]) [%] | other results |
| --- | --- | --- | --- | --- | --- | --- | --- | --- | --- | --- | --- | --- | --- |
| NC(=O)Nc1cc(-c2cccc(F)c2)sc1C(=O)N[C@H]1CCCNC1 [AZD 7762] (0.1 nM) | – | – | – | – | – | – | – | – | – | – | – | – | normalised viability (MDA-MB-231): 115%; normalised viability (HDQ-P1 [1]): 132%; normalised viability (CAL-120): 102%; normalised viability (SK-BR-3): 102%; normalised viability (CAL-51 [2]): 101%; normalised viability (HCC1599): 89%; normalised viability (Hs578T): 124%; normalised viability (MDA-MB-453 [3]): 117%; normalised viability (BT-474): 115%; normalised viability (BT-549): 108%; normalised viability (HCC1937): 119%; normalised viability (HCC1143): 115%; normalised viability (CAL-148 [4]): 104%; normalised viability (DU-4475 [5]): 101%; normalised viability (MDA-MB-468): 111%; normalised viability (CAL-85-1 [6]): 107%; normalised viability (MFM-223): 108%; normalised viability (MDA-MB-436): 115% |
| CCN(CCCOc1ccc2c(Nc3cc(CC(=O)Nc4cccc(F)c4)[nH]n3)ncnc2c1)CCOP(=O)(O)O [Barasertib] (0.1 nM) | – | – | – | – | – | – | – | – | – | – | – | – | normalised viability (MDA-MB-231): 113%; normalised viability (HDQ-P1 [1]): 96.5%; normalised viability (CAL-120): 95.5%; normalised viability (SK-BR-3): 108%; normalised viability (CAL-51 [2]): 95.4%; normalised viability (HCC1599): 105%; normalised viability (Hs578T): 135%; normalised viability (MDA-MB-453 [3]): 93.3%; normalised viability (BT-474): 109%; normalised viability (BT-549): 103%; normalised viability (HCC1937): 104%; normalised viability (HCC1143): 107%; normalised viability (CAL-148 [4]): 105%; normalised viability (DU-4475 [5]): 123%; normalised viability (MDA-MB-468): 112%; normalised viability (CAL-85-1 [6]): 105%; normalised viability (MFM-223): 102%; normalised viability (MDA-MB-436): 118% |
| NC(=O)Nc1cc(-c2cccc(F)c2)sc1C(=O)N[C@H]1CCCNC1 [AZD 7762] (1000 nM) | 18 | 8.63 | 19.6 | 21.4 | 0.66 | 22.8 | – | – | – | – | – | – | – |
| NCC(=O)CCC(=O)O [Aminolevulinic acid] (1 nM) | – | – | – | – | – | – | – | – | – | – | – | – | normalised viability (MDA-MB-231): 118%; normalised viability (HDQ-P1 [1]): 110%; normalised viability (CAL-120): 86.6%; normalised viability (SK-BR-3): 89%; normalised viability (CAL-51 [2]): 107%; normalised viability (HCC1599): 85%; normalised viability (Hs578T): 104%; normalised viability (MDA-MB-453 [3]): 98.8%; normalised viability (BT-474): 108%; normalised viability (BT-549): 91.1%; normalised viability (HCC1937): 79.4%; normalised viability (HCC1143): 91.7%; normalised viability (CAL-148 [4]): 109%; normalised viability (DU-4475 [5]): 107%; normalised viability (MDA-MB-468): 103%; normalised viability (CAL-85-1 [6]): 99.4%; normalised viability (MFM-223): 96.5%; normalised viability (MDA-MB-436): 105% |
| Cc1ccc(C(=O)N(CCCN)[C@@H](c2oc3cc(Cl)ccc3c(=O)c2Cc2ccccc2)C(C)C)cc1 (1000 nM) | 72.4 | 18.8 | 24.6 | 17.6 | 7.45 | 32.5 | – | – | – | – | – | – | – |
| N.N.[Cl][Pt][Cl] [Cisplatin] (10000 nM) | 110 | 105 | 97.4 | 105 | 112 | 99.5 | – | – | – | – | – | – | – |
| C[C@@H](Oc1cc(-c2cnn(C3CCNCC3)c2)cnc1N)c1c(Cl)ccc(F)c1Cl [Crizotinib] (10000 nM) | 39.6 | 31.2 | 24.9 | 48.6 | 11.7 | 39.5 | – | – | – | – | – | – | – |
| CCN(CCCOc1ccc2c(Nc3cc(CC(=O)Nc4cccc(F)c4)[nH]n3)ncnc2c1)CCOP(=O)(O)O [Barasertib] (1000 nM) | 96.2 | 42 | 44.1 | 26.3 | 40.8 | 81.2 | – | – | – | – | – | – | – |
| CC(=O)Nc1ccc(C(=O)Nc2ccccc2N)cc1 [CI-994] (0.1 nM) | – | – | – | – | – | – | – | – | – | – | – | – | normalised viability (MDA-MB-231): 91.9%; normalised viability (HDQ-P1 [1]): 107%; normalised viability (CAL-120): 110%; normalised viability (SK-BR-3): 95.5%; normalised viability (CAL-51 [2]): 89.6%; normalised viability (HCC1599): 92.6%; normalised viability (Hs578T): 117%; normalised viability (MDA-MB-453 [3]): 101%; normalised viability (BT-474): 86.4%; normalised viability (BT-549): 92.6%; normalised viability (HCC1937): 102%; normalised viability (HCC1143): 105%; normalised viability (CAL-148 [4]): 100%; normalised viability (DU-4475 [5]): 93.2%; normalised viability (MDA-MB-468): 98.9%; normalised viability (CAL-85-1 [6]): 98.3%; normalised viability (MFM-223): 105%; normalised viability (MDA-MB-436): 91.2% |
| CC(=O)Nc1ccc(C(=O)Nc2ccccc2N)cc1 [CI-994] (1000 nM) | 108 | 95.3 | 101 | 96.2 | 80.7 | 98.5 | – | – | – | – | – | – | – |
| CC(C)Cn1cnc2c(N)nc3ccccc3c21 [Imiquimod] (1 nM) | – | – | – | – | – | – | – | – | – | – | – | – | normalised viability (MDA-MB-231): 85.8%; normalised viability (HDQ-P1 [1]): 104%; normalised viability (CAL-120): 92.5%; normalised viability (SK-BR-3): 89.5%; normalised viability (CAL-51 [2]): 101%; normalised viability (HCC1599): 109%; normalised viability (Hs578T): 107%; normalised viability (MDA-MB-453 [3]): 108%; normalised viability (BT-474): 90.6%; normalised viability (BT-549): 105%; normalised viability (HCC1937): 118%; normalised viability (HCC1143): 101%; normalised viability (CAL-148 [4]): 98.1%; normalised viability (DU-4475 [5]): 110%; normalised viability (MDA-MB-468): 109%; normalised viability (CAL-85-1 [6]): 108%; normalised viability (MFM-223): 97%; normalised viability (MDA-MB-436): 107% |
| CC(C)Cn1cnc2c(N)nc3ccccc3c21 [Imiquimod] (10000 nM) | 105 | 92 | 75.2 | 99 | 109 | 100 | – | – | – | – | – | – | – |
| C[C@]12CC[C@@H]3c4ccc(O)cc4C[C@@H](CCCCCCCCC[S+]([O-])CCCC(F)(F)C(F)(F)F)[C@H]3[C@@H]1CC[C@@H]2O (stereo partly specified) [Fulvestrant] (10000 nM) | 113 | 101 | 66.8 | 102 | 115 | 99.3 | – | – | – | – | – | – | – |
| Oc1nc(-c2ccc(C(F)(F)F)cc2)nc2c1CSCC2 [XAV-939] (3000 nM) | – | – | – | – | – | – | 76.8 | 90.3 | 95.4 | 89.8 | 94.1 | 94.1 | – |
| O=P1(NCCCl)OCCCN1CCCl (stereo unspecified) [Ifosfamide] (3000 nM) | – | – | – | – | – | – | 107 | 97.4 | 112 | 106 | 87.2 | 92.9 | – |
| CC(C)Cn1cnc2c(N)nc3ccccc3c21 [Imiquimod] (3000 nM) | – | – | – | – | – | – | 89.1 | 107 | 95.7 | 95.5 | 107 | 107 | – |
| Clc1ccc(Nc2nnc(Cc3ccncc3)c3ccccc23)cc1 [Vatalanib] (3000 nM) | – | – | – | – | – | – | 91.8 | 104 | 75.2 | 75 | 111 | 94 | – |
| Cc1ccc(C(=O)N(CCCN)[C@@H](c2oc3cc(Cl)ccc3c(=O)c2Cc2ccccc2)C(C)C)cc1 (300 nM) | – | – | – | – | – | – | 62.6 | 26.7 | 24.8 | 16.8 | 31.2 | 32.4 | – |
| NCC(=O)CCC(=O)O [Aminolevulinic acid] (3000 nM) | – | – | – | – | – | – | 103 | 109 | 122 | 96.7 | 110 | 88.7 | – |
| CC(=O)Nc1ccc(C(=O)Nc2ccccc2N)cc1 [CI-994] (300 nM) | – | – | – | – | – | – | 130 | 99.5 | 96.1 | 100 | 90.5 | 110 | – |
| NCC(=O)CCC(=O)O [Aminolevulinic acid] (10000 nM) | 106 | 83.2 | 87.7 | 104 | 111 | 76.9 | – | – | – | – | – | – | – |

From the supplement of paper PMC4862054
